Reference: PubChem BioAssay (NCI)
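Method: 48-hour compound exposure of cells in 96-well plates, five concentrations, linear interpolation of endpoints. The concentration for full growth arrest is given as TGI.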

Experiments:
Assay in all cases: NCI tumour cell line growth inhibition, 48 h
[1] = system: EKVX NSCLC
[2] = system: NCI-H226 lung
[3] = system: ACHN renal
[4] = system: TK-10 renal
[5] = system: SN12C renal
[6] = system: NCI-H23 lung
[7] = system: SF-268 CNS
[8] = system: SK-OV-3 ovarian
[9] = system: IGROV1 ovarian
[10] = system: UO-31 renal
[11] = system: UACC-62 melanoma
[12] = system: BT-549 breast
[13] = system: SW-620 colon
[14] = system: MDA-MB-231 breast
[15] = system: SF-539 CNS
[16] = system: SNB-75 CNS
[17] = system: SK-MEL-2 melanoma
[18] = system: MDA-MB-435
[19] = system: MCF7 breast
[20] = system: HT29 colon
[21] = system: COLO 205 colon
[22] = system: HOP-92 NSCLC
[23] = system: DU-145 prostate
[24] = system: UACC-257 melanoma
[25] = system: SK-MEL-28 melanoma
[26] = system: PC-3 prostate
[27] = system: OVCAR-5 ovarian
[28] = system: RXF 393 renal
[29] = system: OVCAR-8 ovarian
[30] = system: MOLT-4 leukemia
[31] = system: U251 CNS
[32] = system: OVCAR-3 ovarian
[33] = system: A549 NSCLC
[34] = system: HOP-62 NSCLC
[35] = system: HCT-116 colon
[36] = system: MALME-3M melanoma
[37] = system: HCT-15 colon
[38] = system: CAKI-1 renal
[39] = system: NCI-H522 lung
[40] = system: T-47D breast
[41] = system: SNB-19 CNS
[42] = system: HL-60(TB) leukemia
[43] = system: NCI-H460 lung
[44] = system: SK-MEL-5 melanoma
[45] = system: SF-295 CNS
[46] = system: NCI/ADR-RES ovarian
[47] = system: OVCAR-4 ovarian
[48] = system: M14 melanoma
[49] = system: K-562 leukemia
[50] = system: LOX IMVI melanoma
[51] = system: KM12 colon
[52] = system: HS 578T breast
[53] = system: 786-0 renal

SMILES: [N-]=[N+]=Nc1ccc(NCCCCCC(=O)ON2C(=O)CCC2=O)c([N+](=O)[O-])c1
- TGI [1]: > 100 µM
- TGI [2]: > 100 µM
- TGI [3]: > 100 µM
- TGI [4]: > 100 µM
- TGI [5]: > 100 µM
- TGI [6]: > 100 µM
- TGI [7]: > 100 µM
- TGI [8]: > 100 µM
- TGI [9]: > 100 µM
- TGI [10]: > 100 µM
- TGI [11]: > 100 µM
- TGI [12]: > 100 µM
- TGI [13]: > 100 µM
- TGI [14]: > 100 µM
- TGI [15]: > 100 µM
- TGI [16]: > 100 µM
- TGI [17]: > 100 µM
- TGI [18]: > 100 µM
- TGI [19]: > 100 µM
- TGI [20]: > 100 µM
- TGI [21]: > 100 µM
- TGI [22]: 87.6 µM
- TGI [23]: > 100 µM
- TGI [24]: > 100 µM
- TGI [25]: > 100 µM
- TGI [26]: > 100 µM
- TGI [27]: > 100 µM
- TGI [28]: > 100 µM
- TGI [29]: > 100 µM
- TGI [30]: > 100 µM
- TGI [31]: > 100 µM
- TGI [32]: > 100 µM
- TGI [33]: > 100 µM
- TGI [34]: > 100 µM
- TGI [35]: > 100 µM
- TGI [36]: > 100 µM
- TGI [37]: > 100 µM
- TGI [38]: > 100 µM
- TGI [39]: > 100 µM
- TGI [40]: > 100 µM
- TGI [41]: > 100 µM
- TGI [42]: > 100 µM
- TGI [43]: > 100 µM
- TGI [44]: > 100 µM
- TGI [45]: > 100 µM
- TGI [46]: > 100 µM
- TGI [47]: > 100 µM
- TGI [48]: > 100 µM
- TGI [49]: > 100 µM
- TGI [50]: > 100 µM
- TGI [51]: > 100 µM
- TGI [52]: 97.2 µM
- TGI [53]: > 100 µM
